We go through 13 compounds from patent publication US20200022370A1, “MICROBIOCIDAL OXADIAZOLE DERIVATIVES” (SYNGENTA PARTICIPATIONS AG, priority 2016, published 2020).

SMILES strings stand for the structures. Bounds are passed on as bounds.

One assay has as its system Uromyces viciae-fabae. In words: Uromyces viciae-fabae / field bean / leaf disc preventative (faba-bean rust). In kind it is in vivo. The note with it: foliar, 288 h, 100 ppm in the applied formulation, field bean leaf discs, inoculated two hours after application, vs untreated, 12 days after application, read-out: disease control. The method, then:
Leaf disks or leaf segments of various plant species are cut from plants grown in a greenhouse. The cut leaf disks or segments are placed in multiwell plates (24-well format) onto water agar. The leaf disks are sprayed with a test solution before (preventative) or after (curative) inoculation. Compounds to be tested are prepared as DMSO solutions (max. 10 mg/ml) which are diluted to the appropriate concentration with 0.025% Tween20 just before spraying. The inoculated leaf disks or segments are incubated under defined conditions (temperature, relative humidity, light, etc.) according to the respective test system. A single evaluation of disease level is carried out 3 to 14 days after inoculation, depending on the pathosystem. Percent disease control relative to the untreated check leaf disks or segments is then calculated.
Example 5: Fungicidal Activity Against Uromyces viciae-fabael Field Bean/Leaf Disc Preventative (Faba-Bean Rust)
Field bean leaf discs are placed on water agar in multiwell plates (96-well format) and 10 μl of the Formulated test compound diluted in acetone and a spreader pipetted onto the leaf disc. Two hours after application leaf discs are inoculated by spraying a spore suspension on the lower leaf surface. The leaf discs are incubated in a climate cabinet at 22° C. with 18 hour day and 70% relative humidity. The activity of a compound is assessed as percent disease control compared to untreated when an appropriate level of disease damage appears in untreated check leaf disks (12 days after application).
The following compounds at 100 ppm in the applied Formulation give at least 80% disease control in this test when compared to untreated control leaf discs under the same conditions, which show extensive disease development.
`N#Cc1cc(F)c(C(=O)Nc2ccc(-c3noc(C(F)(F)F)n3)cc2)c(F)c1` [Compound 1.15, 4-cyano-2,6-difluoro-N-[4-[5-(trifluoromethyl)-1,2,4-oxadiazol-3-yl]phenyl]benzamide]: the pest or weed control at 100 ppm was at least 80%. Turning to `CS(=O)(=O)CC(=O)Nc1ccc(-c2noc(C(F)(F)F)n2)cc1` [Compound 1.10, 2-methylsulfonyl-N-[4-[5-(trifluoromethyl)-1,2,4-oxadiazol-3-yl]phenyl]acetamide], the pest or weed control at 100 ppm was at least 80%. The same measure, in the same setting: next, `CC(=O)N(c1ccc(-c2noc(C(F)(F)F)n2)cc1)C(C)C(=O)NC(C)(C)C` (stereo not drawn) [Compound 1.59, 2-[N-acetyl-4-[5-(trifiuoromethyl)-1,2,4-oxadiazol-3-yl]anilino]-N-tert-butyl-propanamide]: at least 80%; `Cn1nc(C(C)(C)C)cc1C(=O)Nc1cccc(C(=O)Nc2ccc(-c3noc(C(F)(F)F)n3)cc2)c1` [Compound 1.33, 5-tert-butyl-2-methyl-N-[3-[[4-[5-(trifluoromethyl)-1,2,4-oxadiazol-3-yl]phenyl]carbamoyl]phenyl]pyrazole-3-carboxamide]: at least 80%; `O=C(Nc1ccc(-c2noc(C(F)(F)F)n2)cc1)c1nccc2nnsc12` [Compound 1.28, N-[4-[5-(trifluoromethyl)-1,2,4-oxadiazol-3-yl]phenyl]thiadiazolo [5,4-c]pyridine-4-carboxamide]: at least 80%.

For `O=C(Nc1ccc(-c2noc(C(F)(F)F)n2)cc1)c1ccccc1` [Compound 1.3, N-[4-[5-(trifluoromethyl)-1,2,4-oxadiazol-3-yl]phenyl]benzamide], the pest or weed control at 100 ppm is at least 80%.

On to `CC(=O)N(c1ccc(-c2noc(C(F)(F)F)n2)cc1)C(C)(C)C(=O)NC(C)(C)C` [Compound 1.61, 2-[N-acetyl-4-[5-(trifluoromethyl)-1,2,4-oxadiazol-3-yl]anilino]-N-tert-butyl-2-methyl-propanamide], for which the pest or weed control at 100 ppm is at least 80%.

As for `O=C(COc1ccc(Oc2cccc(F)c2)cc1)Nc1ccc(-c2noc(C(F)(F)F)n2)cc1` [Compound 1.35, 2-[4-(3-fluorophenoxy)phenoxy]-N-[4-[5-(trifluoromethyl)-1,2,4-oxadiazol-3-yl]phenyl]acetamide], the pest or weed control at 100 ppm is at least 80%. Still for that read-out and setting: next, `CC(C)C(NC(=O)OC(C)(C)C)C1=NOC(C(=O)Nc2ccc(-c3noc(C(F)(F)F)n3)cc2)C1` (stereo not drawn) [Compound 1.30, tert-butyl N-[2-methyl-1-[5-[[4-[5-(trifluoromethyl)-1,2,4-oxadiazol-3-yl]phenyl]carbamoyl]-4,5-dihydroisoxazol-3-yl]propyl]carbamate]: at least 80%; `O=C(Nc1ccc(-c2noc(C(F)(F)F)n2)cc1)c1cc(F)cc2nnsc12` [Compound 1.34, 5-fluoro-N-[4-[5-(trifluoromethyl)-1,2,4-oxadiazol-3-yl]phenyl]-1,2,3-benzothiadiazole-7-carboxamide]: at least 80%; `O=C(Nc1ccc(-c2noc(C(F)(F)F)n2)cc1)c1cccc(OCc2ccccc2)c1` [Compound 1.38, 3-benzyloxy-N-[4-[5-(trifluoromethyl)-1,2,4-oxadiazol-3-yl]phenyl]benzamide]: at least 80%. For `O=C(Nc1ccc(-c2noc(C(F)(F)F)n2)cc1)c1ccc(-n2ccnc2)cc1` [Compound 1.42, 4-imidazol-1-yl-N-[4-[5-(trifluoromethyl)-1,2,4-oxadiazol-3-yl]phenyl]benzamide], the pest or weed control at 100 ppm was at least 80%.

On to `O=C(C=Cc1cccc2ccccc12)Nc1ccc(-c2noc(C(F)(F)F)n2)cc1` [Compound 1.17, 3-(1-naphthyl)-N-[4-[5-(trifluoromethyl)-1,2,4-oxadiazol-3-yl]phenyl]prop-2-enamide], for which the pest or weed control at 100 ppm was at least 80%.

In a further assay the test system is Glomerella lacenarium (Colletotrichum lacenarium). In words: Glomerella lacenarium (Colletotrichum lacenarium) liquid culture / cucumber / preventative (anthracnose). In kind it is cell-based. The note with it: 20 ppm, liquid culture in PDB, 24° C., inhibition of growth measured photometrically 3 to 4 days after application, vs untreated, read-out: disease control. The procedure, abridged:
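Cryopreserved conidia in potato dextrose broth were added to test compound in a 96-well microtiter plate and incubated at 24 °C. Growth inhibition read photometrically 3–4 days after application, as percent activity versus untreated check.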
Consider `N#Cc1cc(F)c(C(=O)Nc2ccc(-c3noc(C(F)(F)F)n3)cc2)c(F)c1` [Compound 1.15, 4-cyano-2,6-difluoro-N-[4-[5-(trifluoromethyl)-1,2,4-oxadiazol-3-yl]phenyl]benzamide], for which the inhibition of growth at 20 ppm is at least 80%. Same read-out and setting: next, `CS(=O)(=O)CC(=O)Nc1ccc(-c2noc(C(F)(F)F)n2)cc1` [Compound 1.10, 2-methylsulfonyl-N-[4-[5-(trifluoromethyl)-1,2,4-oxadiazol-3-yl]phenyl]acetamide]: at least 80%.
